“Also recorded” adds a separate entry of the source. Where a SMILES comes first, the peptide text is derived from it. [ ]: non-standard residue; d: D form. The star is where a group is joined. Boc = CC(C)(C)OC(=O)*; OtBu = CC(C)(C)O*; tBu = CC(C)(C)*
Key:
[1] = Solubility of peptides in ethyl acetate; type: physicochemical; settings: 10 mg/mL added, room temperature 30 minutes, FIG. 3
Description: To evaluate solubility in ethyl acetate, each peptide was weighed and added to a centrifuge tube and ethyl acetate (HPLC grade; residue after evaporation <0.0001%) was added to give a concentration of 10 mg/mL. The tubes were sealed, vortexed and kept at room temperature for 30 minutes with vortexing every 10 minutes. The tubes were then centrifuged for 5 minutes at 10,000 rpm and the supernatant was removed to a previously weighed tube. The ethyl acetate was evaporated under argon and the tubes weighed to determine the amount of peptide that had been contained in the supernatant. The percent of the originally added peptide that was dissolved in the supernatant is shown on the Y-axis. he data are mean±S.D. Control represents sham treated tubes; SEQ ID NO:3 and SEQ ID NO:4 were both synthesized from all D-amino acids. The sequence Boc-Phe-Arg-Glu-Leu-OtBu (SEQ ID NO:5, SEQ ID NO:250 in copending application U.S. Ser. No. 10/649,378) was synthesized from all L-amino acids.

apoE null mice [2] = test: Atherosclerosis in apoE null mice fed peptide in chow for 15 weeks; type: in vivo; settings: female apoE null mice, 200 μg/gm chow
Description: The aortic root (aortic sinus) lesion score was determined in the apoE null mice described in FIG. 13. The number of mice in each group is shown (n=) at the bottom of the figure and a representative section for each group is shown at the top of the figure.
The percent aortic surface containing atherosclerotic lesions was determined in en face preparations in the apoE null mice described in FIG. 13. The number of mice in each group is shown (n=) at the bottom of the left panel and a representative aorta for mice fed chow alone or chow supplemented with. SEQ ID NO:4 is shown in the right panel.
(§1) Female apoE null mice at age 8 weeks were given no additions to their diet (Chow) or received 200 μg/gm chow of SEQ ID NO:3 (+254) or 200 μg/gm chow of SEQ ID NO: 4 (+258), both synthesized from all D-amino acids. After 15 weeks the mice were bled and their plasma fractionated by FPLC and their HDL (mHDL) tested in a human artery wall cell coculture. A standard human LDL (at 100 μg/mL of LDL-cholesterol) was added alone (LDL) or not added (no addition) or was added with 50 μg/mL of normal human HDL (hHDL) or 50 μg/mL of mouse HDL (mHDL) to human artery wall cocultures and the resulting monocyte chemotactic activity was determined and plotted on the Y-axis.

[3] = Interaction of peptide with DMPC in an aqueous environment (dialysis, negative-stain electron micrograph); type: physicochemical; settings: for appearance of solution after dialysis (deoxycholate removed): DMPC: peptide 1:10 wt:wt in PBS; for Bilayer dimension of stacked bilayers / Spacing between bilayers in the stack / Vesicular structures, size: DMPC: peptide 1:10 wt:wt, aqueous environment
Description: FIG. 4 SEQ ID NO:4 forms 7.5 nm particles when mixed with DMPC in an aqueous environment. To 1 mg/ml of DMPC suspension in phosphate buffered saline (PBS) was added 10% deoxycholate until the DMPC was dissolved. SEQ ID NO: 4 or SEQ ID NO:3 were added (DMPC: peptide; 1:10; wt:wt) and the reaction mixture dialyzed. […] The figure is an electron micrograph prepared with negative staining and at 147,420× magnification. The arrows indicate SEQ ID NO: 4 particles measuring 7.5 nm (they appear as small white particles).
To 1 mg/ml of DMPC suspension in phosphate buffered saline (PBS) was added 10% deoxycholate until the DMPC was dissolved. Peptides, SEQ ID NO:4 or SEQ ID NO:3, were added (DMPC: peptide; 1:10; wt:wt) and the reaction mixture dialyzed.

[4] = tested on: LDL-induced monocyte chemotactic activity in human artery wall cocultures; test: Monocyte chemotactic activity in human artery wall cell coculture with HDL of peptide-fed apoE null mice; type: in vivo; settings: female apoE null mice, 200 μg/gm chow, 15 weeks, 50 μg/mL mouse HDL, FIG. 13
Description: Lipoproteins, human artery wall cocultures, and monocytes can be prepared and monocyte chemotactic activity (MCA) determined as previously described (Van Lenten et al. (2002) Circulation, 106: 1127-1132). Induction of MCA by a standard control LDL can be determined in the absence or presence of the subject's HDL. Values in the absence of HDL are typically normalized to 1.0. Values greater than 1.0 after the addition of HDL indicate pro-inflammatory HDL; values less than 1.0 indicate anti-inflammatory HDL.
as §1

[5] = Interaction of peptide with DMPC in an aqueous environment (dialysis, negative-stain electron micrograph); type: physicochemical; settings: DMPC: peptide 1:10 wt:wt
[6] = Solubility in aqueous buffer at pH 7.0; type: physicochemical; settings: pH 7.0, data not shown
apoE null mice [7] = test: Atherosclerosis in apoE null mice fed SEQ ID NO:5 in chow for 12 weeks; type: in vivo; settings: 200 μg/gm chow, p=0.012, FIG. 16

Compound	solubility in ethyl acetate [1]	aortic root (aortic sinus) atherosclerosis, lesion score (apoE null mice [2]; FIG. 14)	aortic atherosclerosis in en face preparations, percent aortic surface containing lesions (apoE null mice [2]; FIG. 15)	appearance of solution after dialysis (deoxycholate removed) [3]	formation of 7.5 nm particles, stacked lipid-peptide bilayers, 38 nm vesicular structures ([3]; conditions of FIG. 4, data not shown)	HDL rendered anti-inflammatory (monocyte chemotactic activity) [4]	aortic root (aortic sinus) atherosclerosis, lesion score (apoE null mice [2]; FIG. 14, listed as SEQ ID NO: 4)	aortic atherosclerosis in en face preparations, percent aortic surface containing lesions (apoE null mice [2]; FIG. 15, listed as SEQ ID NO: 4)	Bilayer dimension of stacked bilayers [3] [nm]	Spacing between bilayers in the stack [3]	Vesicular structures, size [3]	Vesicular structures, size ([3]; listed as SEQ ID NO: 4)	Bilayer dimension of stacked bilayers ([3]; listed as SEQ ID NO: 6)	Spacing between bilayers in the stack ([3]; listed as SEQ ID NO: 6) [nm]	Vesicular structures, size ([3]; listed as SEQ ID NO: 6) [nm]	diameter of particles formed with DMPC (Size "Nascent HDL Particles") ([5]; listed as SEQ ID NO: 4)	diameter of particles formed with DMPC (Size "Nascent HDL Particles") ([5]; listed as SEQ ID NO: 6) [nm]	solubility in aqueous buffer at pH 7.0 [6]	HDL rendered anti-inflammatory (monocyte chemotactic activity) ([4]; listed as SEQ ID NO: 4)	% Aortic Surface Area with Lesions in en face preparations (apoE null mice [7])
CC(C)(C)OC[C@@H](NC(=O)[C@@H](CCCNC(=N)N)NC(=O)[C@@H](CCC(=O)O)NC(=O)[C@@H](CCCCNC(=O)OC(C)(C)C)NC(=O)OC(C)(C)C)C(=O)OC(C)(C)C [SEQ ID NO:3, Boc-Lys(εBoc)-Glu-Arg-Ser(tBu)-OtBu] (Boc-[dK](Boc)[dE][dR][dS](tBu)-OtBu)	poorly soluble	not	not	turbid	did not form	not														
CC(C)(C)OC[C@@H](NC(=O)[C@@H](CCC(=O)O)NC(=O)[C@@H](CCCNC(=N)N)NC(=O)[C@@H](CCCCNC(=O)OC(C)(C)C)NC(=O)OC(C)(C)C)C(=O)OC(C)(C)C [SEQ ID NO:4, Boc-Lys(εBoc)-Arg-Glu-Ser(tBu)-OtBu] (Boc-[dK](Boc)[dR][dE][dS](tBu)-OtBu)	very soluble; also recorded: highly soluble	significantly decreases	significantly decreases	remained clear		renders apoE null HDL anti-inflammatory	significantly reduced	significantly decreased	3.4 to 4.1	approximately 2 nm	approximately 38 nm	approximately 38 nm	3.4-4.1 nm	2.0	38	approximately 7.5 nm	7.5	soluble	rendered anti-inflammatory	
CC(C)C[C@H](NC(=O)[C@H](CCC(=O)O)NC(=O)[C@H](CCCNC(=N)N)NC(=O)[C@H](Cc1ccccc1)NC(=O)OC(C)(C)C)C(=O)OC(C)(C)C [SEQ ID NO:5, Boc-Phe-Arg-Glu-Leu-OtBu] (Boc-FREL-OtBu)	very soluble																			significantly decreases atherosclerosis

Reference: patent US20060173067A1, “Small molecules for the treatment of atherosclerosis” (The Regents of the University of California, priority 2004, published 2006)
